Columns and labels:
in vivo = conditions: rat
Experimental: SD rats (Male, weighing 220 g ± 20 g) were divided into a dichloromethane administration group and a control group with 6 rats in each group. Both groups were given probe substrate drugs by gavage. […] 200 μL blood samples were taken from the rat jugular vein at 0.167, 0.333, 0.5, 0.75, 1, 2, 3, 4, 6, 8, 10, and 12 h after the administration of the probe substrate. After precipitation of proteins by with 600 μL acetonitrile via centrifugation […] at 4°C at 3,500 rpm for 10 min. The supernatant was detected using liquid chromatography-tandem mass spectrometry (LC-MS/MS). The mass spectrometry information of the probe drug is shown in Supplementary Table S3. Animal experiments in this study were approved by the Animal Ethics Committee of the Dalian Medical University.

CYP2C9 = CYP2C9 (Homo sapiens, UniProt P11712); experiment: CYP2C9 inhibition, probe/drug metabolism in human liver microsomes; conditions: diclofenac 4 μM, 30 min; for activity at 30 min: human, human liver microsomes, pH 7.4, probe diclofenac 4 μM, Residual activity (%) CYP2C9, HLM 0.5 mg/mL
CYP2C9, sequence (P11712 whole entry): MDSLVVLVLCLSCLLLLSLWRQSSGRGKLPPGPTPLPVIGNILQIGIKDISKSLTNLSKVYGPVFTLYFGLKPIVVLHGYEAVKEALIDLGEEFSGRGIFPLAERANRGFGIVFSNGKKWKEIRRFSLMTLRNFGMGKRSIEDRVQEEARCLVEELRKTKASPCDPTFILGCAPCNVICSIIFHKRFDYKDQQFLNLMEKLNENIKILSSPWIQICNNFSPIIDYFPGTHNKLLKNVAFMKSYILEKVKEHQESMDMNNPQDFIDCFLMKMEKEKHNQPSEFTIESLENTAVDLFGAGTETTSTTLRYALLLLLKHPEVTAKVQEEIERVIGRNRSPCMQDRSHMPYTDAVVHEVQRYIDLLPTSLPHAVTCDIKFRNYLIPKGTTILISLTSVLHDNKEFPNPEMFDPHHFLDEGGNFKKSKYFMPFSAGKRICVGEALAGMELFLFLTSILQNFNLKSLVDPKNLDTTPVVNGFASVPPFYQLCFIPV
Experimental: (§1) The total volume of the in vitro metabolic incubation system is 200 μL. The probe substrate concentration in the system is shown in Supplementary Table S1. […] The reaction sample was preheated in a constant temperature mixer at 37°C. Then NADP^+ was added to the system to initiate the reaction. The reaction time is 30 min, and 100 μL acetonitrile will be added on time to quickly terminate the reaction, followed by centrifugation at 4°C and 20,000 g for 20 min. The supernatant was analyzed using liquid chromatography tandem mass spectrometry (LC-MS/MS), and the activity of CYP enzymes was evaluated by the generation of probe metabolites. The mass spectrometry information of probe substrates is shown in Supplementary Table S3.
(§2) The isolated triterpenoids (1–66) were used to establish a compounds library. The inhibitory effects of 66 triterpenoids from G. lucidum on seven subtypes of CYP enzymes (CYP1A2, 2A6, 2D6, 2B6, 2C9, 2C19, 3A4) were evaluated followed the above-mentioned experimental procedures.
(§3) For 16 clinical drugs metabolized by CYP enzymes, potential DDI studies were conducted on triterpenoids (6, 25) of G. lucidum, and IC50 values were measured.
(§4) Clinical drugs: Phenacetin, melatonin, clozapine and riluzole are metabolized by CYP1A2. Bupropion, artemisinin, efavirenz and sertraline are metabolized by CYP2B6. Diclofenac, valsartan, glimepiride and glibenclamide are metabolized by CYP2C9. Midazolam, imatinib, simvastatin and diltiazem are metabolized by CYP3A4.
(§5) Table S1. The information of probes for CYPs activity assay
(§6) Table S2. Information of clinical drugs

CYP2B6 = molecular target: T1, CYP2B6 (Homo sapiens, UniProt P20813); experiment: CYP2B6 inhibition, probe/drug metabolism in human liver microsomes; conditions: bupropion 75 μM, 30 min; for activity at 30 min: human, human liver microsomes, pH 7.4, probe bupropion 75 μM, Residual activity (%) CYP2B6, HLM 0.5 mg/mL
T1 sequence (P20813 1-491): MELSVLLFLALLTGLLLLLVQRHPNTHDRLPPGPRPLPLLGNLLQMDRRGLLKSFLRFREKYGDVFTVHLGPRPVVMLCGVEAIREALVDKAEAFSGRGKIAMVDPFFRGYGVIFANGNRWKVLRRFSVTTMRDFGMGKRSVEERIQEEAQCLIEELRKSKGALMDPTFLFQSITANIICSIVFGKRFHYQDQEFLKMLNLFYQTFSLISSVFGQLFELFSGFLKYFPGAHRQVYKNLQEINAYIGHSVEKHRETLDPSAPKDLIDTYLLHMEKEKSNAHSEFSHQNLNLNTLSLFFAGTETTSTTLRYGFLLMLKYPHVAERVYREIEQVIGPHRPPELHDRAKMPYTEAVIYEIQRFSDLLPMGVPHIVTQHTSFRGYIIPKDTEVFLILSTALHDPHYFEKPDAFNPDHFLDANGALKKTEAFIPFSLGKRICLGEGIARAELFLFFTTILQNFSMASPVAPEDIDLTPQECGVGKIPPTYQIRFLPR
Experimental: as §1, §2, §3, §4, §5, §6

CYP2D6 = CYP2D6 (Homo sapiens, UniProt P10635); experiment: CYP2D6 inhibition, dextromethorphan probe in human liver microsomes; conditions: for Residual activity (%) CYP2D6: HLM 0.5 mg/mL, dextromethorphan 5 μM, 30 min
CYP2D6, sequence (P10635 whole entry): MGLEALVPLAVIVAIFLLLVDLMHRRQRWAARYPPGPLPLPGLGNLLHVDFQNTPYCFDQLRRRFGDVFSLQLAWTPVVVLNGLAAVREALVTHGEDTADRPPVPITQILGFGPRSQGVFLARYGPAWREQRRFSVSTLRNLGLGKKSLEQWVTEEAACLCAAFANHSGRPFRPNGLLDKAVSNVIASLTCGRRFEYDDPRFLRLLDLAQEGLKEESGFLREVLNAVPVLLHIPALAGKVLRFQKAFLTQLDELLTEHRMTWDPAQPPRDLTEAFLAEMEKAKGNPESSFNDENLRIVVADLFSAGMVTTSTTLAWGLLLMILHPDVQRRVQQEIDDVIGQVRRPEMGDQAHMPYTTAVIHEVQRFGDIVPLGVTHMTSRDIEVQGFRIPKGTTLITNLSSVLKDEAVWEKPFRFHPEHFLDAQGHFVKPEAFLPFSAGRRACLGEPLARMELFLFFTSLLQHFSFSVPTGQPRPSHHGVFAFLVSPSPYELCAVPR
Experimental: as §1, §2, §5

CYP2A6 = molecular target: T2, CYP2A6 (Homo sapiens, UniProt P11509); experiment: CYP2A6 inhibition, coumarin probe in human liver microsomes; conditions: for activity at 30 min: human, human liver microsomes, pH 7.4, probe coumarin 2 μM, Residual activity (%) CYP2A6, HLM 0.5 mg/mL
T2 sequence (P11509 1-494): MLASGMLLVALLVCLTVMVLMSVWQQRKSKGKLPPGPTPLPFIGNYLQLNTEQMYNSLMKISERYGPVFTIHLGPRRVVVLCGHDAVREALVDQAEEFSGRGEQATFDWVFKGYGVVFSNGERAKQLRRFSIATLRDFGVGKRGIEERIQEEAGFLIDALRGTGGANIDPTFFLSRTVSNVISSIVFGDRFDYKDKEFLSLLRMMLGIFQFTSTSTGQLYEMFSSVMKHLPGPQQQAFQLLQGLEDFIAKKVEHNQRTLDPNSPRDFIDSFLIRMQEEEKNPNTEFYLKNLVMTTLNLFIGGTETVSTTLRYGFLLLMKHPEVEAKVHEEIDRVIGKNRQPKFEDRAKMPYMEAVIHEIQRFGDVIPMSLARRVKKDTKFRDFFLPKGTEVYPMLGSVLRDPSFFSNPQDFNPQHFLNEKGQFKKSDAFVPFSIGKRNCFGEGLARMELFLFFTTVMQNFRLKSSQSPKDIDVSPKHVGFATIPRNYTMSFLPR
Experimental: as §1, §2, §5

CYP2C19 = CYP2C19 (Homo sapiens, UniProt P33261); experiment: CYP2C19 inhibition, S-mephenytoin probe in human liver microsomes; conditions: S-mephenytoin 50 μM, 30 min; for activity at 30 min: human, human liver microsomes, pH 7.4, probe S-mephenytoin 50 μM, Residual activity (%) CYP2C19, HLM 0.5 mg/mL
CYP2C19, sequence (P33261 whole entry): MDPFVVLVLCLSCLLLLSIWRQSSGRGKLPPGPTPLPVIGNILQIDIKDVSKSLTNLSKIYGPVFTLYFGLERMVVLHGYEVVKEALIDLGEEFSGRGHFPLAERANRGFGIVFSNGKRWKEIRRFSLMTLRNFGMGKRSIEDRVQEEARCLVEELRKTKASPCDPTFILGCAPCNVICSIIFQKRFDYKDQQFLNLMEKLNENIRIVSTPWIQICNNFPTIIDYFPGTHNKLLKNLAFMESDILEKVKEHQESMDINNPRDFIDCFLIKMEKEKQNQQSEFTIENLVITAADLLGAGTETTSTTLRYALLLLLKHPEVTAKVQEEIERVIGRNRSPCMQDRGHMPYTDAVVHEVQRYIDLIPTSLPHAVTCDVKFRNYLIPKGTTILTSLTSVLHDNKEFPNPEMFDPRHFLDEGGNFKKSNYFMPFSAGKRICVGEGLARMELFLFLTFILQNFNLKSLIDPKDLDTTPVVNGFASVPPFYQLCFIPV
Experimental: as §1, §2, §5

CYP1A2 = molecular target: T3, CYP1A2 (Homo sapiens, UniProt P05177); experiment: CYP1A2 inhibition, probe/drug metabolism in human liver microsomes (LC-MS/MS); conditions: for Residual activity (%) CYP1A2: HLM 0.5 mg/mL
T3 sequence (P05177 1-516): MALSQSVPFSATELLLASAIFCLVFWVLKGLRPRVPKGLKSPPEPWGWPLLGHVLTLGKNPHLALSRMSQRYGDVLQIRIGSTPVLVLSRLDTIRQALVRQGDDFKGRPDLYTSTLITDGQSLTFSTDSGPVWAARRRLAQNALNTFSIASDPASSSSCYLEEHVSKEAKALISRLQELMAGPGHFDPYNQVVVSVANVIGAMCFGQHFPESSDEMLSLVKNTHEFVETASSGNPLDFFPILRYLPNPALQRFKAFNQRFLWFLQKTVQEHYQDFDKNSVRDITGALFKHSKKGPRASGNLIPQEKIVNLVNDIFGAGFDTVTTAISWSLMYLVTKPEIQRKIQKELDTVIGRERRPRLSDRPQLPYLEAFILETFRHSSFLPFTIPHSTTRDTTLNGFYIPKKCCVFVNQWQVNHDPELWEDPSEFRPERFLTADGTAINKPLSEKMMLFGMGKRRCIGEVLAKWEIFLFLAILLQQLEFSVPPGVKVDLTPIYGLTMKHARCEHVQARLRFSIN
Experimental: as §1, §2, §3, §4, §5, §6

[1] = gavage, drug alone (control group), n = 6

Compound	AUM (in vivo; male, SD, in vivo)	Cl_F_ (in vivo; male, SD, in vivo)	AUC(0-inf) (in vivo; male, SD, in vivo, po)	AUC(0-t) (in vivo; male, SD, in vivo, po)	Cmax (in vivo; male, SD, in vivo, po)	Tmax (in vivo; male, SD, in vivo, po)	Vz_F (in vivo; male, SD, in vivo, po)	other results
O=C(O)Cc1ccccc1Nc1c(Cl)cccc1Cl [Dic, diclofenac]	7,332.465 ± 1,560.101 h*ng/mL	4,276.363 ± 388.068 mL/h/kg	2350 ng·h/mL	2270 ng·h/mL	912 ± 68.1 ng/mL	17.5 ± 6.12 min	12,244.920 ± 1707.693 mL/kg	
CC(CC(=O)CC(C)C1CC(=O)C2(C)C3=C(C(=O)CC12C)C1(C)CCC(O)C(C)(C)C1CC3=O)C(=O)O (stereo not drawn) [Compound 54]								activity at 30 min (CYP2C9): 88.45 ± 0.51%; activity at 30 min (CYP2B6): 84.1 ± 1.32%; Residual activity (%) CYP2D6 (CYP2D6): 108.69±3.90%; activity at 30 min (CYP2A6): 82.6 ± 2.79%; activity at 30 min (CYP2C19): 88.3 ± 3.63%; Residual activity (%) CYP1A2 (CYP1A2; phenacetin 40 μM, 30 min): 47.09±3.09%; IC50 at 30 min (CYP1A2; human, human liver microsomes, pH 7.4, probe phenacetin 40 μM, IC50 against CYP 1A2, substrate phenacetin 40 μM, HLM): 24.7 ± 3.38 µM
CC(CC(=O)CC(C)C1CC(O)C2(C)C3=C(C(=O)CC12C)C1(C)CCC(=O)C(C)(C)C1CC3=O)C(=O)O (stereo not drawn) [Compound 45]								activity at 30 min (CYP2C9): 73.5 ± 6.44%; activity at 30 min (CYP2B6): 83 ± 3.05%; activity at 30 min (CYP2D6; human, human liver microsomes, pH 7.4, probe dextromethorphan 5 μM, Residual activity (%) CYP2D6, HLM 0.5 mg/mL): 93.7 ± 8.49%; activity at 30 min (CYP2A6): 90.1 ± 2.87%; activity at 30 min (CYP2C19): 70.3 ± 4.05%; IC50 (CYP1A2; IC50 against CYP 1A2, substrate phenacetin 40 μM, HLM): 18.2 ± 1.33 µM; activity at 30 min (CYP1A2; human, human liver microsomes, pH 7.4, probe phenacetin 40 μM, Residual activity (%) CYP1A2, HLM 0.5 mg/mL, phenacetin 40 μM, 30 min): 48.2 ± 4.71%
CC(CC(=O)CC(C)C1CC(=O)C2(C)C3=C(C(=O)CC12C)C1(C)CCC(O)C(C)(C)C1CC3=O)C(=O)O (stereo not drawn) [Compound 55]								Residual activity (%) CYP2C9 (CYP2C9; HLM 0.5 mg/mL): 96.25±6.96%; Residual activity (%) CYP2B6 (CYP2B6; HLM 0.5 mg/mL): 77.81±6.09%; Residual activity (%) CYP2D6 (CYP2D6): 86.79±5.16%; Residual activity (%) CYP2A6 (CYP2A6; HLM 0.5 mg/mL, coumarin 2 μM, 30 min): 74.81±0.70%; Residual activity (%) CYP2C19 (CYP2C19; HLM 0.5 mg/mL): 104.32±8.04%; Residual activity (%) CYP1A2 (CYP1A2; phenacetin 40 μM, 30 min): 71.10±3.67%
CC(NC(C)(C)C)C(=O)c1cccc(Cl)c1 (stereo not drawn) [Bup, bupropion]	15,378.075 ± 3,089.500 h*ng/mL	3,954.386 ± 375.228 mL/h/kg	5090 ng·h/mL	4950 ng·h/mL	1890 ± 154 ng/mL	25 ± 7.74 min	10,405.594 ± 1,602.189 mL/kg	
CCOc1ccc(NC(C)=O)cc1 [PHE, Phenacetin]	692.744 ± 85.4782 ng·h/mL	14,264.696 ± 912.942 mL/h/kg	352 ± 22.6 ng·h/mL	342 ± 22.6 ng·h/mL	364 ± 38.1 ng/mL	37.5 ± 8.22 min	31,514.554 ± 6,298.860 mL/kg	
Cc1ncc2n1-c1ccc(Cl)cc1C(c1ccccc1F)=NC2 [MDZ, midazolam]			2340 ng·h/mL	2300 ng·h/mL	1630 ng/mL	40 ± 7.74 min		AUM (in vivo; [1]): 4,197.381 ± 670.735 h*ng/mL; Cl_F_ (in vivo; [1]): 4,313.217 ± 497.661 mL/h/kg; Vz_F (in vivo; [1]): 8,995.776 ± 2,395.823 mL/kg

Source: article PMC11605156, “Triterpenoids from Ganoderma lucidum inhibit cytochrome P450 enzymes interfering with the metabolic process of specific clinical drugs” (Frontiers in Pharmacology, 2024)
